Source: a melting point compilation (Tetko et al.; mined from patent text by program, amines drawn as free bases though some values may be those of a salt)

Row | melting point [°C] | Compound
1 | 129 to 130 | CN(C(=O)c1ccc(C(C)(C)C)cc1)C1N(C)C(c2ccc(F)cc2)=NC1(C(F)(F)F)C(F)(F)F (configuration not stated)
2 | 163 to 165 | CS(=O)(=O)Nc1cccc2c(O)ccc(N=Nc3cccc(S(=O)(=O)NCCCCCCBr)c3)c12
3 | 223 to 225 | COC(=O)c1cccc(Nc2nccc(-c3sc(N)nc3-c3ccccc3)n2)c1
4 | 181 to 183 | CCCc1c(OCC(O)CS(=O)(=O)c2ccc(CC(=O)O)c(Cl)c2Cl)ccc(C(C)=O)c1O (configuration not stated)
5 | 191 to 194 | O=C1C2CC(c3ccc([N+](=O)[O-])cc3)(C2)C(=O)N1CC1CCCCC1
6 | 170 to 173 | O=C1C=CCC(c2ccccc2)(c2ccccc2)O1
7 | 118 to 119 | CCCCCCCCCC(=O)c1ccc(O)c(C(=O)O)c1
8 | 170 | OC1CSC(Oc2cccnc2-c2nnn[nH]2)C(O)C1O (configuration not stated)
9 | 143 to 145 | CCNc1cc(Oc2ccc(N)cc2)ncn1
10 | 295 | c1ccc2c(c1)[nH]c1c2ccc2cc[nH]c21
11 | 250 | O=C(N[C@H]1CC[C@H](CCN2CCN(c3nccc4c3OCC4)CC2)CC1)C1(O)CCC1
12 | 208 | Clc1cc2c(nn1)-c1ccccc1OC2
13 | 38 to 39 | CCOC(=O)CCc1ccc(OCCOC)cc1OCc1ccccc1
14 | 124 to 125 | O=C(Cc1ccc(Cl)cc1Cl)N1CCN(c2cnccn2)CC1
15 | 94 | N#Cc1ncc(F)cc1OC1SCC(O)C(O)C1O (configuration not stated)
16 | 114 to 115 | COC(=O)C1Oc2ccc(Cl)cc2C(c2ccccc2)(C(C)C)O1 (configuration not stated)
17 | 233 to 235 | CC(C)S(=O)(=O)N1CCN(Cc2ccc(COc3cccc4c3CN(C3CCC(=O)NC3=O)C4=O)cc2)CC1 (configuration not stated)
18 | 37 to 40 | CCNC(=O)c1ccccc1NC(C)(C)C
19 | 127 to 130 | COc1ccc(-c2cc(OCc3ccccc3)c(=O)n(C)c2-c2ccncc2)cc1
20 | 116 to 117 | CC(C)N(C(=O)n1oc(=O)[nH]c1=O)c1ccccc1
21 | 170 to 172 | N#Cc1cc(C(=O)O)cnc1Br
22 | 45 to 47 | NCC(O)CN1CCN(C(c2ccc(F)cc2)c2ccc(F)cc2)CC1 (configuration not stated)
23 | 119 to 120 | CC(C)(C)c1cc(-c2c[nH]c(S(C)(=O)=O)n2)cc(C(C)(C)C)c1O

Row | melting point [°C] | Compound
24 | 187 to 188 | CC1(C)CCC(C)(C)c2cc(Sc3ccc(C(=O)O)cc3)ccc21
25 | 172 to 178 | O=C(CCc1ccccc1)N1CCN(C(=O)C(Cc2ccc(O)cc2)NS(=O)(=O)c2cccc3cnccc23)CC1 (configuration not stated)
26 | 204 to 206 | O=C1CC(c2ccc(Cl)cc2)CC(=O)N1c1ccncc1
27 | 256 to 259 | CC(=NO)c1nc(N)nc(N)c1-c1ccc(Cl)cc1
28 | 248 | CCOC(=O)C1(C)C(=O)Nc2cc(N)ccc21 (configuration not stated)
29 | 123 | Cc1ccc(COc2ccc(C(=O)NC[C@@H](C(=O)NO)N3CCCCC3)cc2)c2ccccc12
30 | 81 to 82 | CCN(CC)CCNc1ccc(C)c2sc3ccc(OC)cc3c(=O)c12
31 | 158 | CCCCCCCCCCCC(=O)NNC(=O)c1ccccc1O
32 | 58 to 61 | CCCCCNC(=O)c1cc(N2CCN(C(=O)c3ccccc3C(F)(F)F)CC2)nn1C(=O)OCc1ccccc1
33 | 78 | CCc1ccc(NC(=S)SC)cc1
34 | 291 | C(=Cc1ccc2cc(C=Cc3ccccc3)ccc2c1)c1ccccc1
35 | 250 to 252 | CC(=O)N1CCN(c2ccc(Nc3nccc(-c4sc(-c5ccc(N6CCOCC6)cc5)nc4C)n3)cc2)CC1
36 | 167 to 169 | COc1cc([N+](=O)[O-])c2nccc(C)c2c1Cl
37 | 195 to 204 | C[C@H](NC1=NS(=O)(=O)c2sc(Cl)cc2N1)c1ccccc1
38 | 128 to 129 | Cc1nc(NC(=O)Nc2ccc(N3CCN(C(=O)Nc4cc(OCCO)ccc4Cl)CC3)nc2)sc1C
39 | 73 to 76 | OC(COc1ccc(Cl)cc1)CN1CCN(c2ncccc2F)CC1 (configuration not stated)
40 | 64 to 67 | CC1CC(=O)c2cc([N+](=O)[O-])cnc2C1 (configuration not stated)
41 | 176 to 177 | NC(=O)CNC(=O)c1ccnc(-c2cccc3cc(Cc4cccc(C(F)(F)F)c4)sc23)c1
42 | 94 to 95 | Cc1cc2c(cc1-n1c(C)ccc1C)OC(=O)C2C (configuration not stated)
43 | 122 to 124 | CC(C)c1nc(-c2ccccc2Cc2ccccc2)cc(-c2ccc(F)cc2)c1CO
44 | 64 to 65 | COC(=N)c1ccc(Br)cc1
45 | 56 to 59 | CCOP(=O)(OCC)C(Nc1cnccn1)P(=O)(OCC)OCC
46 | 138 to 140 | COC(=O)c1ccc(Cc2cccc3ccc(N)cc23)c(OC)c1

Row | melting point [°C] | Compound
47 | 86 | Cc1ccc(S(=O)(=O)N2[C@@H](CCC#N)CC[C@H]2c2ccc(F)cc2)cc1 (racemic)
48 | 175 to 176 | Cc1cccc(-c2csc(N3CCN(C(=O)Nc4onc(C)c4C)CC3)n2)c1
49 | 204 to 205 | Cc1c(C)c(N2CCN(c3nc(-c4ccccc4)ns3)CC2)c(C)c2c1OC(C)(C)C2
50 | 76 to 77 | C=CCNS(=O)(=O)c1ccc(I)cc1
51 | 146 to 148 | Cc1cccc(C2COc3cc(O)c(O)cc3C2)c1 (configuration not stated)
52 | 173 to 174 | Cn1cccc(Cc2cc3cccc(-c4cccc(C(=O)NCCO)c4)c3s2)c1=O
53 | 64 to 67 | CCCCCCCCCCCCCCCCOc1c2ncnc(SCC(=O)OCCCC)c2nn1C
54 | 141 to 142 | OCCNc1nc(NCc2ccccc2)c2ncc(Nc3ncccn3)cc2n1
55 | 229 to 231 | Oc1ccc2c(c1)CCCC(c1ccccc1)=C2c1ccc(OCCI)cc1
56 | 200 | O=c1[nH]c2ccc(CCN3CCN(c4ccc5ncccc5c4)CC3)cc2o1
57 | 113 to 114 | O=[N+]([O-])c1cc(F)c(-c2ccc(C(F)(F)F)cc2)cc1F
58 | 293 to 296 | CC(C)(CO)c1ccc(C(=O)Nc2cn3cc(-c4cn[nH]c4)ccc3n2)cc1
59 | 29.5 to 30.4 | CCCCC[C@H]1CC[C@H](c2nc(Cl)c(OC)c(Cl)n2)CC1
60 | 154 to 155 | O=[N+]([O-])C=Cc1cn(-c2ccccc2)c2ccccc12
61 | 120 to 123 | Nc1nc2ccccc2n1-c1cccc(-c2ccc3[nH]ccc3c2)c1
62 | 194 | CC1(C)Cc2c(N)ccc(O)c2O1
63 | 173 to 174 | O=C(O)Cc1csc(-c2ccccc2O)n1
64 | 99 to 110 | O=C(Cc1ccc(CN2CCC(=O)C(C(c3ccccc3)c3ccccc3)C2)cc1)OCC(=O)c1ccccc1 (configuration not stated)
65 | 169 to 170 | CC(C)CCCC(C)C1CCC2C3C(=O)C=C4CC(O)CCC4(C)C3CCC12C (configuration not stated)
66 | 174 | CC1Oc2ccc(CN3CCN(CCO)CC3)cc2NC1=O (configuration not stated)
67 | 213 | CS(=O)(=O)N1CCN([C@@H](CNC(=O)c2ccc(OCc3ccncc3)cc2)C(=O)NO)CC1
68 | 277 | NS(=O)(=O)c1cccc(-c2noc(-c3cnn4c(C5CC5)cc(-c5ccc(C(F)(F)F)cc5)nc34)n2)c1
69 | > 300 | Cc1cc(C(=O)Nc2ccc(C(N)=O)cc2)on1

Row | Compound | melting point [°C]
70 | CN1CCC23c4c5ccc(O)c4OC2C(=NO)CCC3(O)C1C5 (configuration not stated) | 270 to 271
71 | CCCCOc1ncc(C(=O)N[C@@H]2CCCC[C@H]2O)cc1-c1cc(C(F)(F)F)ccc1F | 172 to 178
72 | COc1c(Cc2c[nH]cn2)cccc1C(N)=O | 160
